The record followed here is ChEMBL document CHEMBL4371069, “Click chemistry for improvement in selectivity of quinazoline-based kinase inhibitors for mutant epidermal growth factor receptors” (Bioorg Med Chem Lett, 2019).

One data set has as its target CYP2D6 (Homo sapiens, UniProt P10635). Kind of data set: Inhibition of CYP2D6 in human liver microsomes assessed as residual activity at 10 uM using dextromethorphan as substrate preincubated for 5 mins followed by NADPH addition and measured after 15 mins by LC-MS/MS analysis relative to control. The format is ADME. To be noted: probe dextromethorphan, read-out: Activity. In general terms: Liver microsomes are a subcellular fraction often used to study metabolism.

The next data set concerns NCI-H1975. Kind of data set: Antiproliferative activity against human NCI-H1975 cells harboring EGFR T790M/L858R double mutant after 72 hrs by EZ-Cytox assay. Type of data set: functional, cell-based. To be noted: NCI-H1975, 72 h.
The subject of a further data set is HepG2. Briefly: Cytotoxicity against human HepG2 cells after 24 hrs by LDH release assay. Type of data set: cell-based. Particulars: HepG2, 24 h. In general terms: Release of lactate dehydrogenase indicates damage to the cell membrane.
The target of data set [1] is Receptor tyrosine-protein kinase erbB-2 (Homo sapiens, UniProt P04626). Briefly: Inhibition of human C-terminal His6-tagged ERBB2 (676 to end residues) expressed in baculovirus infected sf21 cells using poly(Glu, Tyr) 4:1 as substrate.
A further data set addresses T1, CYP1A2 (Homo sapiens, UniProt P05177).
T1 sequence (P05177 whole entry): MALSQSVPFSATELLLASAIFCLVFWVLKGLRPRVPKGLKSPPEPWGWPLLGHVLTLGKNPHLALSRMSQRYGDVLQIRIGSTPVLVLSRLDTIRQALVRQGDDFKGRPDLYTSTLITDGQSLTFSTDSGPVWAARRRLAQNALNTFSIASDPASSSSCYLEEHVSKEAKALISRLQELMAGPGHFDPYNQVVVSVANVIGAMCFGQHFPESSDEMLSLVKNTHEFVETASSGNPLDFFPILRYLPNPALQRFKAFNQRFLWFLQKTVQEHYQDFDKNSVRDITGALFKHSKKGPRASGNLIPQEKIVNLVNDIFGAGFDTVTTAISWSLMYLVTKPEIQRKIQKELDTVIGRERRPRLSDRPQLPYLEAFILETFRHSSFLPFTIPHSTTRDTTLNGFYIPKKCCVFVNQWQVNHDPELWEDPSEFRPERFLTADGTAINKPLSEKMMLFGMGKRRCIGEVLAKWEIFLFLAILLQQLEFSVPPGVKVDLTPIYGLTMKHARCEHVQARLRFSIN
Kind of data set: Inhibition of CYP1A2 in human liver microsomes assessed as residual activity at 10 uM using phenacetin as substrate preincubated for 5 mins followed by NADPH addition and measured after 15 mins by LC-MS/MS analysis relative to control. Particulars: probe phenacetin, read-out: Activity. Type of data set: ADME.

The next data set addresses CYP3A4 (Homo sapiens, UniProt P08684). Kind of data set: Inhibition of CYP3A4 in human liver microsomes assessed as residual activity at 10 uM using midazolam as substrate preincubated for 5 mins followed by NADPH addition and measured after 15 mins by LC-MS/MS analysis relative to control. To be noted: probe midazolam, read-out: Activity. Type of data set: ADME.
Data set [2] can be described thus: Selectivity index, ratio of IC50 for human C-terminal His6-tagged ERBB2 (676 to end residues) expressed in baculovirus infected sf21 cells to IC50 for human N-terminal GST-tagged EGFR T790M/L858R double mutant (696 to end residues) expressed in baculovirus infected sf21 cells.
For data set [3], the system named is PC-9. Briefly: Potency index, ratio of gefitinib IC50 to compound IC50 for antiproliferative activity against human PC9 cells harboring EGFR exon-19 del mutant. Type of data set: functional.
The subject of data set [4] is PC-9. Kind of data set: Antiproliferative activity against human PC9 cells harboring EGFR exon-19 del mutant after 72 hrs by EZ-Cytox assay. Type of data set: functional, cell-based. To be noted: PC-9, 72 h.
The target in data set [5] is Epidermal growth factor receptor (Homo sapiens, UniProt P00533, L858R/T790M). Briefly: biochemical. Type of data set: cell-based, Sf21.
Data set [6] can be described thus: Selectivity index, ratio of IC50 for human N-terminal GST-tagged EGFR kinase domain (696 to end residues) expressed in baculovirus infected sf21 cells to IC50 for human N-terminal GST-tagged EGFR T790M/L858R double mutant (696 to end residues) expressed in baculovirus infected sf21 cells.
The test system of data set [7] is Epidermal growth factor receptor (Homo sapiens), P00533 [L858R,T790M]. Kind of data set: Potency index, ratio of afatinib IC50 to compound IC50 for inhibition of human N-terminal GST-tagged EGFR T790M/L858R double mutant (696 to end residues) expressed in baculovirus infected sf21 cells.

Chain of Receptor tyrosine-protein kinase erbB-2 (P04626 whole entry): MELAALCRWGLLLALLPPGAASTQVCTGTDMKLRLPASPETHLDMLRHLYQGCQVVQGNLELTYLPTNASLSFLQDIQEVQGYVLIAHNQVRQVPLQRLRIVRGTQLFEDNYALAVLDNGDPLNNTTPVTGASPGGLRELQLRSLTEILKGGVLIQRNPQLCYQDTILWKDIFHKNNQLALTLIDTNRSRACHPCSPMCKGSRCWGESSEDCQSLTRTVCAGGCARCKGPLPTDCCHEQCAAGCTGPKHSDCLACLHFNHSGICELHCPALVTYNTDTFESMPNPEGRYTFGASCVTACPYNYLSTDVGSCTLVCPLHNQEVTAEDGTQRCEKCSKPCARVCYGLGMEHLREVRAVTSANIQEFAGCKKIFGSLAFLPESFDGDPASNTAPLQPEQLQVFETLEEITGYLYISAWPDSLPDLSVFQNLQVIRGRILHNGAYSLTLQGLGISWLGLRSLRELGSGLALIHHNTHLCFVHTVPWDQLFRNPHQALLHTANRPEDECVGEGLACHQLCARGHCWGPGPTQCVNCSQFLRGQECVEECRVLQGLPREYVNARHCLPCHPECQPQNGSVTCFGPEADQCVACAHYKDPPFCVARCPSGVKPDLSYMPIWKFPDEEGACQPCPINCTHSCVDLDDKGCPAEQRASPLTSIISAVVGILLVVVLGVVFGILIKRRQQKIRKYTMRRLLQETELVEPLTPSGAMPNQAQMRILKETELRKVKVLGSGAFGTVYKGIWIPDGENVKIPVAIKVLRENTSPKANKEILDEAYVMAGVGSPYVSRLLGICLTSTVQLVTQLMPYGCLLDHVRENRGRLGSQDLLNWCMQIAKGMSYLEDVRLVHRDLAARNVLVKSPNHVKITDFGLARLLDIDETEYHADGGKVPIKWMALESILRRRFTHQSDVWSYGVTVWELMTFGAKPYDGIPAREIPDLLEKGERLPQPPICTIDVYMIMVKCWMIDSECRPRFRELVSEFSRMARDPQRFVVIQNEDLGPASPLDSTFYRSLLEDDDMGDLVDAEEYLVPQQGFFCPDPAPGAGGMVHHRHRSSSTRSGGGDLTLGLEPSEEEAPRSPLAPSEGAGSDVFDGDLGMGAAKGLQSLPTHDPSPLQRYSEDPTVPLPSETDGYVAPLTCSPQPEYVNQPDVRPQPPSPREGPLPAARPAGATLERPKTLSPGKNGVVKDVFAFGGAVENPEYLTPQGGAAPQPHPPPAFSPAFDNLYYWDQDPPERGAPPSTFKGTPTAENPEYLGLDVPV
Chain of CYP3A4 (P08684 whole entry): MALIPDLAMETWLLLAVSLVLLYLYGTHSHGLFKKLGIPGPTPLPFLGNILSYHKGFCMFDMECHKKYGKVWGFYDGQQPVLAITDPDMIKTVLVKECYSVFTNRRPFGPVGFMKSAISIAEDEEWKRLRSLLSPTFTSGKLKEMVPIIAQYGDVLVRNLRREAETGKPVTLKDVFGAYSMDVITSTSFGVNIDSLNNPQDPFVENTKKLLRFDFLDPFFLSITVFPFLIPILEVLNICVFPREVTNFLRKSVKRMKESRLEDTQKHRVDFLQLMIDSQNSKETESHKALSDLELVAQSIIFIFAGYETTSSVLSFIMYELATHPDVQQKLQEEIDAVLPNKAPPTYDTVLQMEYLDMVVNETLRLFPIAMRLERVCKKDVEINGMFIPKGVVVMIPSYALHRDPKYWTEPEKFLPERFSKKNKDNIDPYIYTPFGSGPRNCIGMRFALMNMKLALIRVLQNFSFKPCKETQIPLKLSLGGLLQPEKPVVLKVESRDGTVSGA
Chain of CYP2D6 (P10635 whole entry): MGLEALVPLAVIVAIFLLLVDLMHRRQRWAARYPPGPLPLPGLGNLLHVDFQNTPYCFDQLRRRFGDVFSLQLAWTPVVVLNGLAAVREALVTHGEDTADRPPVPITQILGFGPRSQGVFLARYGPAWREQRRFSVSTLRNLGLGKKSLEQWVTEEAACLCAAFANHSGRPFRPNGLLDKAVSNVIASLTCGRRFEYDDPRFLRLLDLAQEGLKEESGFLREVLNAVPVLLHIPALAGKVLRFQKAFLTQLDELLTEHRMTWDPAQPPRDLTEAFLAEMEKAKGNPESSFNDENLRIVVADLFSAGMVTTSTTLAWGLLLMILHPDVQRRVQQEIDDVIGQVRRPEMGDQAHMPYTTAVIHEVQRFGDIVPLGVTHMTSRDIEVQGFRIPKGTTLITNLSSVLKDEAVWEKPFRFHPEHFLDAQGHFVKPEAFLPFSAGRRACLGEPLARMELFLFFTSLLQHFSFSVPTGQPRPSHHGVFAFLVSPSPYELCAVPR

In the case of `C=CC(=O)Nc1cc2c(Nc3ccc(F)c(Cl)c3)ncnc2cc1OCc1cn(Cc2cccc(F)c2)nn1`, the activity at 0.25 h, 10 µM on CYP2D6 was 14.9%; on CYP1A2, 52.5%; on CYP3A4, 50.1%. Besides, the half-inhibitory concentration (IC50) in the data set on NCI-H1975 is 505 nM; in the data set with HepG2, 29000 nM; in [1], 209 nM; in the data set on PC-9 [4], 0.9 nM; in data set [5] it was 4 nM. Besides, the “Ratio IC50” value in data set [2] is 52; with PC-9 [3], 6.7; in data set [6], 17; in data set [7] it was 3.5.

Consider `C=CC(=O)Nc1cc2c(Nc3ccc(F)c(Cl)c3)ncnc2cc1OCc1cn(Cc2ccc(Cl)cc2)nn1`, for which the activity at 0.25 h, 10 µM on CYP2D6 came out at 24.4%; at CYP1A2, 60.8%; at CYP3A4 it was 77.6%. In addition, the IC50 in the data set with NCI-H1975 was 304 nM; with HepG2 it was 60000 nM; in [1] it was 225 nM; in the data set with PC-9 [4], 0.9 nM; in data set [5] it was 12 nM.

On to `C=CC(=O)Nc1cc2c(Nc3ccc(F)c(Cl)c3)ncnc2cc1OCc1cn(Cc2ccc(F)cc2)nn1`, for which the activity at 0.25 h, 10 µM at CYP2D6 amounted to 12.2%; at CYP1A2, 51.1%; at CYP3A4, 55.3%. For the same molecule, the IC50 in the data set with NCI-H1975 was determined as 453 nM; with HepG2, 27000 nM; in [1] it was 212 nM; with PC-9 [4], 1 nM; in data set [5], 6 nM.

The IC50 is the concentration that gives 50% inhibition. High values mean a need for much substance, low ones inhibition by little substance.
